Experimental data reported in patent publication US10660934B2, “Neuroprotective peptide” (SENJU PHARMACEUTICAL CO., LTD., priority 2016, dated 2020).
Each block holds one molecule with its values, some of them ahead of it. Where no end group is shown, it is not given here.

Key:
SH-SY5Y cells = experiment: Hypoxia-induced cell death assay in human neuroblastoma SH-SY5Y cells (LDH); type: cell-based; details: 100 nM, 24 hours hypoxia (O2 0.1% or less), glucose-free DMEM, mean ± standard error (n = 3)
Method: SH-SY5Y cells (ATCC) were sustainably cultured in a DMEM/F12 medium (Invitrogen, 11330-032) supplemented with a 10% serum (Invitrogen, 10062-147) under the condition of 37° C. and 5% CO2.
The cells were seeded on a 96-well plate (Iwaki, 3860-096) at a density of 2×10^4 cells/100 μl/well. The following day the medium was replaced with a DMEM/F12 medium comprising a 1% serum and 10 μM of a retinoic acid (Wako, 302-79-4) and differentiated by incubation for 2 days. After replacing the medium with a glucose-free DMEM medium supplemented with 100 nM of Peptide 1, a hypoxia state (O2 concentration of 0.1% or less) was induced by putting the plate in an Anaero Pack rectangular jar with Anaero Pack Kenki 5% (Mitsubishi Gas Chemical Company, Inc., A-07) with hermetically sealing, and culturing at 37° C. Alter culturing for 24 hours in the hypoxia state, the cell-death inhibiting rate by the peptide was calculated by measuring the amount of LDH in the cells and the medium, using an LDH cytotoxicity detection kit (Takara, MK401). Moreover, 100 nM of an IGF-1 was used as a positive control in the experiment IGF-1 has a protective effect against nerve cell death (Mol. Cell Neurosci, 2011, 47 (3), 181-190). 3. Test Results

[1] = Stability in a vitreous humor solution; type: in vitro ADME, rabbit
Method: (Two) rabbits were euthanized by intravenous administration of 5 ml of a pentobarbital sodium solution, and then their eyeballs were removed. An incision was made in the equatorial region of each eyeball and the vitreous humor-solution was harvested from each eyeball using a syringe (18G injection needle) at the site of incision. The mixed vitreous humor solution was filtered with a cell strainer (40 μm) and the filtrate was used as the vitreous humor solution for the stability tests. 600 μl of the vitreous humor solution was mixed with 1.2 μl of a Primocin at a concentration of 50 mg/ml and the resultant solution was used as sample solution. 270 μl of the sample solution and […] in a 30 μl aqueous solution were mixed and the resultant mixture was used as the test sample. The test sample was incubated at 37° C. […] The analysis samples were stored frozen at −20° C. until it was time to take readings using them. […] Then, the concentration of Peptide 1 in each sample was analyzed using liquid chromatography. The concentrations were calculated from the area values obtained using the external standard method. […]
The residual rate was calculated using the following formula: Residual rate=(the concentration of peptide after 7 days' incubation/the concentration of peptide in the test samples immediately after they were prepared)×100 [Formula 1]

[2] = test system: rat retinal ganglion cells (RGC); experiment: Hypoxia-induced cell death assay in rat retinal ganglion cells (Calcein-AM/Ethidium homodimer); type: cell-based; details: for Rate of cell-death suppression (%): 24 hours hypoxia
Method: Retinal ganglion cells were isolated by a magnetic activated cell sorting method (MACS). Retinas were harvested from neonatal rats (Slc: Sprague-Dawley, 7-day old) and the tissue was dissociated using a Neural Tissue Dissociation Kit (Miltenyi Biotec, 130-094-802). Then, using a Retinal Ganglion Cell Isolation Kit (Miltenyi Biotec, 130-096-209), the endothelial cells and microglia were removed, and a positive selection for CD90.1^+ RGC was carried out by means of CD90.1MicroBeads. The test was carried out with the approval of the Animal Test Ethics Committee based on the Act on Welfare and Management of Animals (Act number 105 of Oct. 1, 1973, last revision: Act number 38 of Jun. 12, 2013), etc. 2. Cell Culture
After suspending the isolated RGC in a neurobasal medium (Gibco Corporation, 12348-017) containing a B27 supplement (Invitrogen, 0080085-SA), 1 mM of L-glutamine (Gibco, 25030), 50 ng/ml of BDNF (Peprotech, 25-02), 50 ng/ml of CNTF (Peprotech, 450-50) and 5 μm of Forskolin. (Sigma, F6886), they were seeded on a 96-well plate (Corning, 354596), ‘which’ was coated with poly-D-lysine/laminin, at a density of 5×10^3 cells/100 μl/well, and incubated at 37° C. and 5% CO2 for three days.
After having replaced the media with neurobasal media comprising a B27 supplement, 1 mM of L-glutamine […] and each peptide, a hypoxia state (O2 concentration of 0.1% or less) was induced by putting the plate in an Anaero Pack rectangular jar with Anaero Pack Kenki 5% (Mitsubishi Gas Chemical Company, Inc., A-07) with hermetically sealing, and incubating at 37° C. After incubating for 24 hours under hypoxia condition, Calcein-AM and Ethidium homodimer (Invitrogen, L3224) were added to the media. As a result of staining the cells, it was possible to distinguish between the viable cells and the dead cells. The number of viable cells and dead cells were measured using an Image Pro plus, and the rate of viability was given as “the proportion of the viable cell count relative to the total cell count.” 4. Test Results
The isolation and incubation of RGC were performed by the same methods as for Test Example 3-1, and 2.
Commercially available PRP4 (Abnova, H0011272-Q01) having the sequence of SEQ ID NO: 2, was used for Peptide 5. The evaluation of Peptide 5 was carried out by the same evaluation method as used for Test Example 3-3.

[3] = 100 nM, mean ± standard error (n = 14-19)

Molecule: IGF-1
Cell lethality (%) (SH-SY5Y cells): 88.1 ± 8.3 %

stability in a vitreous humor solution (in words) ([1]; 7 days at 37° C.): stable in a vitreous humor solution
remaining at 168 h ([1]; vitreous humor solution (filtered, from rabbit eyeballs), after 7 days' incubation at 37° C. in rabbit vitreous humor solution, read-out: Residual ratio (%)): 98.4%
Molecule: HPPPPPFQNQQRPP [Peptide 1, HPPPPPFQNQQRPP]

Molecule: QQRPP (Peptide of PRP4) [Peptide 4]
Rate of cell-death suppression (%) [2, 3]: 31.1 ± 7.8 %

Molecule: HPPPPPFQNQQ (peptide of PRP4) [Peptide 2]
Rate of cell-death suppression (%) [2, 3]: 26.4 ± 4.8 %

Molecule: HPPPPPFQ (peptide of PRP4) [Peptide 3]
Rate of cell-death suppression (%) [2, 3]: 27.2 ± 6.6 %

B1: Peptide 5: Commercially available PRP4 (Abnova, H0011272-Q01) having the sequence of SEQ ID NO: 2 (protein)
chain: QSTDNDVNYEDFTFTIPDVEDSSQRPDQGPQRPPPEGLLPRPPGDSGNQDDGPQQRPPKPGGHHRHPPPPPFQNQQRPPQRGHRQLSLPRFPSVSLQEAS
modifications: commercial recombinant protein, possible tag; Peptide of PRP4
Rate of cell-death suppression (%) ([2]; 10 nM, mean ± standard error (n = 12 to 18)): 66.2 ± 14.4 %
suppression of cell death from hypoxia (in words) ([2]; rat RGC, Test Example 4, 10 nM): significantly suppressed the cell death from hypoxia
